Key:
[1] = system: CFT073 + pSU18 (pEMP); experiment: microbe, parasite or virus in culture; format: cell-based, E. coli; conditions: Escherichia coli, read-out: MIC value CFT073 + pSU18, empty plasmid, no β-lactamase
[2] = molecular target: T1, recombinant AmpC protein (Escherichia coli, UniProt P00811); format: biochemical
T1 construct: purchased Abcam ab104926

[3] = molecular target: T2, recombinant DNA gyrase (Escherichia coli, UniProt P0AES4+P0AES6); experiment: Recombinant DNA gyrase supercoiling assay ± CTX-M-15; format: biochemical, E. coli; conditions: ± CTX-M-15
T2 construct: purchased Inspiralis
T2 sequence (P0AES4 whole entry, one chain of several): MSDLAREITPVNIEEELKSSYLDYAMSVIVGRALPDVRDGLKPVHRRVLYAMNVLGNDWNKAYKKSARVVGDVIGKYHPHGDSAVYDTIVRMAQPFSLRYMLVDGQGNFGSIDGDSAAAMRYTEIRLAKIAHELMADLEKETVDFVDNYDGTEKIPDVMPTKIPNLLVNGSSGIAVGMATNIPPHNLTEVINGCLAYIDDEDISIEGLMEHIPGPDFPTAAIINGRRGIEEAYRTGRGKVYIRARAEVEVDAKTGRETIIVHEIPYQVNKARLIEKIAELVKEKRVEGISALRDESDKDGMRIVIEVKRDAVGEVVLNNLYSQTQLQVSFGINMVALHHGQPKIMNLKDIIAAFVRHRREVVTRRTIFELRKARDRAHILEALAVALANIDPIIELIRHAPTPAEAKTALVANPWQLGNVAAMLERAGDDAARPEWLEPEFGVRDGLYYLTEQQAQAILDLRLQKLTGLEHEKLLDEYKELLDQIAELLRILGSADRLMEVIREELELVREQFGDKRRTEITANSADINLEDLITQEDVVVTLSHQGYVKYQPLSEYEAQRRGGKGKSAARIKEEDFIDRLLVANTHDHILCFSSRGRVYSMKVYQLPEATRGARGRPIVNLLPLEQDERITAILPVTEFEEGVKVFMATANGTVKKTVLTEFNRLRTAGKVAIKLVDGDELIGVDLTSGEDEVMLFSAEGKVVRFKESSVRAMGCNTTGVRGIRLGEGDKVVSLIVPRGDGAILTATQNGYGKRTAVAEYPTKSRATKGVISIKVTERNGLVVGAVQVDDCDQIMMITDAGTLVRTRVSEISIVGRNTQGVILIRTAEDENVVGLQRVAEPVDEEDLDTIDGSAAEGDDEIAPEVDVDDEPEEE

[4] = system: E. coli strain DH5α; experiment: MIC, broth microdilution, E. coli DH5α; format: cell-based; conditions: for MIC value DH5α: E. coli DH5α without β-lactamase
Description: Analysis of the literature identified the amide functionality at C-7 of the cephem ring as central to PBP and β-lactamase activity,[44]−[51] and therefore structural changes at this position provided the initial focus of investigation. By use of cephalothin 7 (Table 1) as the starting point, analogues were prepared to explore bioisosteric replacement,[52],[53] functionalities present in early generation β-lactam antibiotics, and to probe steric and electronic tolerance.[54],[55] All compounds were synthesized according to the previously reported methods (Figure S1 in Supporting Information).[55],[56] Antibacterial activity was assessed by determining the minimal concentration required to inhibit bacterial growth, known as the minimal inhibitory concentration (MIC), against the E. coli strain DH5α ± expression of the ESBL TEM-116.[57] The susceptibility to β-lactamase mediated hydrolysis was assessed by determining the physiological efficiency (kcat/Km) of hydrolysis by recombinant AmpC protein.[3],[58],[59] […]
pNDM pSU18 containing the native coding sequence for NDM-1 under the Jiménez-control of the native promoter Castellanos et […]
pKPC pSU18 containing the native coding sequence for KPC-3 under the Brem et al., control of the native promoter 20166
Transformation of E. coli with plasmids
Plasmids were introduced via heat shock into chemically competent DH5a and via electroporation into E. coli CFT073 following published protocols.8 […]
The bacterial strains and plasmids used in this study are detailed in Supplementary Table 1.
E. coli was grown in Mueller-Hinton Broth (MHB) or Lennox Broth (LB) at 37 °C, with shaking (180 r.p.m.) overnight (16-18 h). […]
MIC assays were performed in 96-well thermo scientific Nuclon Delta Surface plates and MICs were determined in accordance with the broth microdilution protocol.7 E. coli grown to stationary-phase in MHB or LB were adjusted to OD600 nm of 0.05 in MHB and […]
determined as the lowest concentration of antibiotic that inhibited visible bacterial growth.
OD595 measurements were recorded on a BioRad 1Mark Microplate Reader. […]
subsequently incubated at 37 °C with shaking (180 r.p.m.) and bacterial viability determined […]
Each compound was incubated for 1 hour at room temperature in 100 mM NaPO4 (pH 7) ± 0.5 M NaOH. The wavelength at which the difference between un-hydrolysed and hydrolysed compound was the greatest was selected (typically 263 nm) and a compound concentration vs. absorbance standard curve was generated. […] Recombinant Amp-C in assay buffer was added immediately before incubatio n in the microplate reader at 37 °C. UV absorbance was measured every 20 s for 1 h on a BMG LABTECH SPECTROstarNano. Kinetic parameters were determined by half -life analysis. […]

[5] = system: CFT073 + pSU18 + CTX-M-1; experiment: Whole-cell NMR β-lactamase hydrolysis assay, CFT073 + CTX-M-1; format: cell-based, E. coli; conditions: 100 μM compound at 1 h by whole-cell NMR assay
[6] = system: DH5α cells –βla; experiment: Whole-cell NMR β-lactamase hydrolysis assay, DH5α without β-lactamase; format: cell-based, E. coli; conditions: DH5α – CTX-M-1, 100 μM, 60 min
[7] = system: DH5α expressing CTX-M-1; experiment: Whole-cell NMR β-lactamase hydrolysis assay, DH5α + CTX-M-1; format: cell-based, E. coli; conditions: DH5α + CTX-M-1, 100 μM, 60 min
[8] = system: DH5α + TEM-116; experiment: Whole-cell NMR β-lactamase hydrolysis assay, DH5α + TEM-116; format: cell-based, E. coli; conditions: DH5α + TEM-116, 100 μM, 90 min

T1 sequence (P00811 20-377): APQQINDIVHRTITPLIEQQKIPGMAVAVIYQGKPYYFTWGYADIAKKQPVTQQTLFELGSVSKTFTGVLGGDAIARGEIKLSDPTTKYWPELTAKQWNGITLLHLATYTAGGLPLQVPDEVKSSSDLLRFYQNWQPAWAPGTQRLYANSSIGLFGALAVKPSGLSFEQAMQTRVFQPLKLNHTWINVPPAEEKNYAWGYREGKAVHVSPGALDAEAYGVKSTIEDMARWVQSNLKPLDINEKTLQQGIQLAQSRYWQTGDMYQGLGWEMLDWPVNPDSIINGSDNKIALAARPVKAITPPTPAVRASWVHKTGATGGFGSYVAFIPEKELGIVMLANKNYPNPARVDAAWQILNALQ

SMILES: CCCCCC(=O)N[C@@H]1C(=O)N2C(C(=O)O)=C(COC(C)=O)CS[C@H]12 [compound 28, (6R,7R)-3-(Acetoxymethyl)-7-hexanamido-8-oxo-5-thia-1-azabicyclo[4.2.0]oct-2-ene-2-carboxylic Acid]
- MIC [1]: 100 µM

SMILES: CC(=O)OCC1=C(C(=O)O)N2C(=O)[C@@H](NC(=O)Cc3cccc(C)c3)[C@H]2SC1 [compound 18, (6R,7R)-3-(acetoxymethyl)-8-oxo-7-(2-(m-tolyl)acetamido)-5-thia-1-azabicyclo[4.2.0]oct-2-ene-2-carboxylic Acid]
- increase in kcat/Km compared to cephalothin [2]: 3 fold
- increase in kcat/Km compared to para-methyl 12 [2]: 5 fold

SMILES: O=C(O)c1cn(C2CC2)c2cc(N3CCNCC3)c(F)cc2c1=O [Ciprofloxacin 31, ciprofloxacin, reference compound]
- effect of CTX-M-15 on DNA gyrase inhibitory activity [3]: not affected by CTX-M-15

SMILES: CC(=O)OCC1=C(C(=O)O)N2C(=O)[C@@H](NC(=O)Cc3cccc(Oc4ccccc4)c3)[C@H]2SC1 [compound 19, (6R,7R)-3-(Acetoxymethyl)-8-oxo-7-(2-(3-phenoxyphenyl)acetamido)-5-thia-1-azabicyclo[4.2.0]oct-2-ene-2-carboxylic Acid]
- MIC value DH5α [4]: no measurable MIC values
- % hydrolysis in CFT073 + pSU18 + CTX-M-1 [5]: 0%

SMILES: CC(=O)OCC1=C(C(=O)O)N2C(=O)[C@@H](NC(=O)C3CCCCC3)[C@H]2SC1 [compound 25, (6R,7R)-3-(Acetoxymethyl)-7-(cyclohexanecarboxamido)-8-oxo-5-thia-1-azabicyclo[4.2.0]oct-2-ene-2-carboxylic Acid]
- % hydrolysis in CFT073 + pSU18 + CTX-M-1 [5]: 0%

SMILES: CC(=O)OCC1=C(C(=O)O)N2C(=O)[C@@H](NC(=O)[C@H](C)c3ccccc3)[C@H]2SC1 [compound 10, (6R,7R)-3-(Acetoxymethyl)-8-oxo-7-((R)-2-phenylpropanamido)-5-thia-1-azabicyclo[4.2.0]oct-2-ene-2-carboxylic Acid]
- % hydrolysis in CFT073 + pSU18 + CTX-M-1 [5]: 0%

SMILES: CC(=O)OCC1=C(C(=O)O)N2C(=O)[C@@H](NC(=O)Cc3ccc(F)cc3)[C@H]2SC1 [compound 13, (6R,7R)-3-(Acetoxymethyl)-7-(2-(4-fluorophenyl)acetamido)-8-oxo-5-thia-1-azabicyclo[4.2.0]oct-2-ene-2-carboxylic Acid]
- MIC [1]: 100 µM

SMILES: CC(=O)OCC1=C(C(=O)O)N2C(=O)[C@@H](NC(=O)Cc3ccc(Br)cc3)[C@H]2SC1 [compound 15, (6R,7R)-3-(Acetoxymethyl)-7-(2-(4-bromophenyl)acetamido)-8-oxo-5-thia-1-azabicyclo[4.2.0]oct-2-ene-2-carboxylic Acid]
- MIC [1]: 100 µM

SMILES: CC(=O)OCC1=C(C(=O)O)N2C(=O)[C@@H](NC(=O)Cc3ccc(Cl)cc3)[C@H]2SC1 [compound 14, (6R,7R)-3-(Acetoxymethyl)-7-(2-(4-chlorophenyl)acetamido)-8-oxo-5-thia-1-azabicyclo[4.2.0]oct-2-ene-2-carboxylic Acid]
- MIC [1]: 100 µM

SMILES: CC(=O)OCC1=C(C(=O)O)N2C(=O)[C@@H](NC(=O)Cc3ccc(C)cc3)[C@H]2SC1 [compound 12, (6R,7R)-3-(Acetoxymethyl)-8-oxo-7-(2-(p-tolyl)acetamido)-5-thia-1-azabicyclo[4.2.0]oct-2-ene-2-carboxylic Acid]
- MIC [1]: 100 µM

SMILES: CC(=O)OCC1=C(C(=O)O)N2C(=O)[C@@H](NC(=O)Cc3ccc(-c4ccccc4)cc3)[C@H]2SC1 [compound 16, (6R,7R)-7-(2-([1,1′-Biphenyl]-4-yl)acetamido)-3-(acetoxymethyl)-8-oxo-5-thia-1-azabicyclo[4.2.0]oct-2-ene-2-carboxylic Acid]
- MIC value DH5α [4]: no measurable MIC values
- % hydrolysis by NMR –βla [6]: 0%
- % hydrolysis by NMR +βla [7]: 100%

SMILES: CC(=O)OCC1=C(C(=O)O)N2C(=O)[C@@H](NC(=O)Cc3cccs3)[C@H]2SC1 [Ceph 7, cephalothin, reference compound]
- % hydrolysis by NMR –βla [6]: 0%
- % hydrolysis by NMR +βla ([7]; listed as cepaholothin 7): complete hydrolysis

SMILES: CC(=O)OCC1=C(C(=O)O)N2C(=O)[C@@H](NC(=O)Cc3ccccc3)[C@H]2SC1 [compound 11, (6R,7R)-3-(Acetoxymethyl)-8-oxo-7-(2-phenylacetamido)-5-thia-1-azabicyclo[4.2.0]oct-2-ene-2-carboxylic Acid]
- increase in MIC value against E. coli DH5α compared to cephalothin [4]: 4 fold

SMILES: CC(=O)OCC1=C(C(=O)O)N2C(=O)[C@@H](NC(=O)Cc3ccc(Oc4ccccc4)cc3)[C@H]2SC1 [compound 17, (6R,7R)-3-(Acetoxymethyl)-8-oxo-7-(2-(4-phenoxyphenyl)acetamido)-5-thia-1-azabicyclo[4.2.0]oct-2-ene-2-carboxylic Acid]
- MIC value DH5α [4]: no measurable MIC values
- % hydrolysis by NMR –βla [6]: 0%
- % hydrolysis by NMR +βla [8]: 54%
